For data set [1] the following is noted: via the urinary tract or by enzymatic metabolism in the liver; cited from earlier work.
The subject of data set [2] is N. gonorrhoeae ATCC49226/MMX 683. Nature of the data set: Agar dilution MIC assay (Example 1). The format is cell-based, Neisseria gonorrhoeae. How it is done: Neisseria gonococcus (N. gonorrhoeae) were assayed using a reference agar dilution method, see reference (2). Drug dilutions and drug-supplemented agar plates were prepared manually. Neisseria gonococcus was grown on Chocolate agar in a CO2 incubator overnight at 35° C. prior to assay. […] The MIC was read per CLSI guidelines, see reference (3).

Another data set has as its system cats. The note with it: p.o.; cited from earlier work.
The conditions of data set [3]: cited from earlier work.
The next data set has as its system Pseudomonas aeruginosa. Description: Broth microdilution MIC testing. The note with it: Pseudomonas aeruginosa MMX 103/ATCC 27853, susceptible, QC. The class given is cell-based. As to the method: (§1) Broth microdilution assay: Mueller Hinton II broth (MHB II, BBL, BD, catalog no. 212322; lot no. 5257869) was used for testing most aerobes.
(§2) MIC values were determined using a broth microdilution procedure described by CLSI, see reference (1). Automated liquid handlers (Multidrop 384, Labsystems, Helsinki, Finland; Biomek 2000 and Biomek FX, Beckman Coulter, Fullerton Calif.) were used to conduct serial dilutions and liquid transfers.
(§3) The wells in Columns 2 through 12 of two standard 96-well microdilution plates (Costar 3795, Corning Inc., Corning, N.Y.) were filled with 150 μL of diluent specific to the compound tested. Three hundred microliters of each comparator and investigational drug solution (40× or 100×) was added to one well in Column 1 of the plates. The Biomek 2000 was used to complete the serial transfers through Column 11. The wells of Column 12 contained no drug and were the organism growth control wells. These panels were the “mother plates.”
(§4) Because drugs were prepared at either 40× or 100×, the “daughter plates” were loaded with 185-188 μL of the appropriate test media for the tested organism, using the Multidrop 384 or by hand. The daughter plates were prepared on the Biomek FX instrument, which transferred 2-5 μL of drug solution from each well of a mother plate to the corresponding well of each daughter plate in a single step. The wells of the daughter plates ultimately contained 185-188 μL of broth appropriate to the organism, 2-5 μL of drug solution, and 10 μL of bacterial inoculum prepared in broth.
(§5) Standardized inoculum of each organism was prepared per CLSI methods, see reference (1). The inoculum for each organism was dispensed into sterile reservoirs divided by length (Beckman Coulter), and the Biomek 2000 was used to inoculate the plates. Daughter plates were placed on the Biomek 2000 work surface in reverse orientation so that inoculation took place from low to high drug concentration. The Biomek 2000 delivered 10 μL of standardized inoculum into each well. This yielded a final cell density in the daughter plates of approximately 5×10^5 CFU/mL.
(§6) Plates were stacked 3 high, covered with a lid on the top plate, placed in plastic bags, and incubated at 35° C. for approximately 18 to 20 hr. Following incubation, the microplates were removed from the incubator and viewed from the bottom using a plate viewer. […] The MIC was read and recorded as the lowest concentration of drug that inhibited visible growth of the organism.
(In general: In broth dilution the organism is exposed to a series of concentrations in liquid medium.)

The next data set has as its system Enterobacter cloacae. Description: Broth microdilution MIC testing. The format is cell-based. The note with it: Enterobacter cloacae MMX 6089, susceptible. As to the method:
as §1, §2, §3, §4, §5, §6

Data set [4] has as its system Stenotrophomonas maltophila. Description: Broth microdilution MIC testing. The note with it: Stenotrophomonas maltophila MMX 4746, susceptible. The class given is cell-based. As to the method:
as §1, §2, §3, §4, §5, §6

In another data set the test system is Klebsiella pneumoniae. Nature of the data set: Broth microdilution MIC testing. The class given is cell-based. The note with it: Klebsiella pneumoniae MMX 214/ATCC 13883, susceptible. How it is done: as §1, §2, §3, §4, §5, §6
The subject of the next data set is Escherichia coli. Description: Broth microdilution MIC testing. The class given is cell-based. The note with it: for MIC: Escherichia coli, read-out: Minimal Inhibitory Concentration. How it is done: as §1, §2, §3, §4, §5, §6
A further data set concerns Acinetobacter baumannii. Nature of the data set: Broth microdilution MIC testing. The class given is cell-based. The note with it: Acinetobacter baumannii MMX 1630/ATCC 19606, susceptible. As to the method: as §1, §2, §3, §4, §5, §6

Values after ≈ are worked out from the molar mass of the structure shown. Where two headings read alike, the source gives them in different places.

Broadly, the LD50 is the dose expected to kill half of the subjects tested.

Take `O=C(Nc1ccc([N+](=O)[O-])cc1Cl)c1cc(Cl)ccc1O` [Niclosamide, 2′,5-dichloro-4′-nitrosalicylanilide]: the “clearance from the bloodstream” value in data set [1] was “quickly cleared”. Moreover, the MIC was 0.12 µg/mL (≈ 0.367 µM) in data set [2] (ATCC49226, Neisseria gonorrhoeae MMX 683/ATCC 49226, QC, read-out: Minimal Inhibitory Concentration); more than 8 µg/mL in the data set with Pseudomonas aeruginosa (ATCC27853, read-out: Minimal Inhibitory Concentration); more than 8 µg/mL in the data set with Enterobacter cloacae (read-out: Minimal Inhibitory Concentration); more than 8 µg/mL in [4] (Stenotrophomonas sp. LMG 10879, read-out: Minimal Inhibitory Concentration); more than 8 µg/mL with Klebsiella pneumoniae (ATCC13883, read-out: Minimal Inhibitory Concentration); more than 8 µg/mL with Escherichia coli (ATCC25922). The MIC in the data set on Escherichia coli was more than 8 µg/mL; in the data set on Acinetobacter baumannii (ATCC19606, read-out: Minimal Inhibitory Concentration), more than 8 µg/mL. Moreover, the “Minimal Inhibitory Concentration” value in data set [2] (Neisseria gonorrhoeae MMX 683/ATCC 49226, QC) is 0.12 µg/mL; in the data set on Pseudomonas aeruginosa it was more than 8 µg/mL; in the data set on Enterobacter cloacae, more than 8 µg/mL; in data set [4], more than 8 µg/mL; with Klebsiella pneumoniae, more than 8 µg/mL; in the data set with Escherichia coli (Escherichia coli MMX 102/ATCC 25922, QC strain) it was more than 8 µg/mL. The “Minimal Inhibitory Concentration” value in the data set on Escherichia coli (Escherichia coli MMX 120, acrAB efflux pump knockout) was more than 8 µg/mL; with Acinetobacter baumannii, more than 8 µg/mL. In addition, the “in vitro activity (in words)” value in data set [2] (against N. gonococcus (N. gonorrhoeae), Example 1 conclusion) was “good in vitro activity”. Besides, the LD50 in the data set with cats was more than 1000 mg/kg. For the same compound, the solubility in water result in data set [3] is given as “poorly soluble”.
